Data on eleven molecules can be found in paper PMC10275482 (ACS Omega, 2023).

Data set [1] relates to SARS-CoV-2 (isolate USA WA1/2020). Kind of data set: microbe, parasite or virus in culture. The data set is classed as cell-based. The settings on record: Severe acute respiratory syndrome coronavirus 2, Calu-3, 48 h, read-out: IC50 (infection).
For the next data set, the target named is SARS-Cov-2 PL^pro (Severe acute respiratory syndrome coronavirus 2, UniProt P0DTD1). As to the kind of experiment: biochemical.
Data set [2] relates to SARS-CoV-2. The settings on record: Vero cells, cited from earlier work.
A further data set is described as follows: in vitro. Conditions: human.
For data set [3], the system named is SARS-CoV-2. Conditions: cited from earlier work; for EC50: read-out: EC50 in Vero cells.
For data set [4], the system named is SARS-CoV-2. Conditions: cited from earlier work.
For data set [5], the system named is SARS-CoV-2. The settings on record: read-out: A549-ACE2 IC50; A549-ACE2 cells; cited from earlier work.
For a further data set, the system named is PL^pro. Conditions: read-out: PL^pro IC50; cited from earlier work.
A further data set deals with SARS-Cov-2 M^pro (Severe acute respiratory syndrome coronavirus 2, UniProt P0DTD1). As to the kind of experiment: biochemical.

Read-outs that look alike come from different tables or passages of the source.

What is called IC50 is the concentration that gives 50% inhibition. By EC50 is commonly meant the concentration at which the effect is half-maximal.

As to `COc1cc(Nc2c(C#N)cnc3cc(OCCCN4CCN(C)CC4)c(OC)cc23)c(Cl)cc1Cl` [bosutinib], the “cell toxicity in Calu-3 cells (in words)” value with Calu-3 cells is given as “demonstrated cell toxicity”. In addition, the 50% inhibitory concentration (IC50) in data set [1] was determined as 5.26 µM; against SARS-Cov-2 PL^pro, 4.23 ± 0.28 µM. In addition, the “SI (anti-SARS-CoV-2 entry activity)” value in the data set on SARS-CoV-2 [2] is recorded as 7.08. In addition, the EC50 in the data set on SARS-CoV-2 [2] (read-out: anti-SARS-CoV-2 entry activity EC50) was 2.45 µM. The molecule also registered a CC50 in the data set “in vitro” of 6.06 µM.

At SARS-Cov-2 PL^pro, `CCCCCc1c2c(cc(O)c1C(=O)O)OC(=O)c1c(cc(OC)cc1C(=O)CCCC)O2` [lobaric acid] yielded an IC50 of 10 ± 1.11 µM.

On to `CC(C)(C)NC(=O)N[C@H](C(=O)N1C[C@H]2[C@@H]([C@H]1C(=O)NC(CC1CCC1)C(=O)C(N)=O)C2(C)C)C(C)(C)C` (some centres unmarked) [boceprevir], for which the EC50 in the data set with SARS-CoV-2 [3] was 1.31 µM.

Turning to `C=CC(=O)Nc1cccc(Oc2nc(Nc3ccc(N4CCN(C)CC4)cc3)nc3ccsc23)c1` [olmutinib], the “cell toxicity in Calu-3 cells (in words)” value with Calu-3 cells is “demonstrated cell toxicity”. Also, the values for the IC50 (in data set [1]; on SARS-Cov-2 PL^pro) were 9.76 µM and 0.54 ± 0.04 µM, respectively. The same molecule came in with a CC50 in the data set “in vitro” of 12.5 µM.

On to `C[C@@H](Oc1cc(-c2cnn(C3CCNCC3)c2)cnc1N)c1c(Cl)ccc(F)c1Cl` [crizotinib], for which the “cell toxicity in Calu-3 cells (in words)” value in the data set with Calu-3 cells is recorded as “demonstrated cell toxicity”. The IC50 in [1] is 16.3 µM; against SARS-Cov-2 PL^pro, 3.81 ± 0.04 µM. The molecule also showed a CC50 in “in vitro” of 5.09 µM.

As to `OCCN(CCO)c1nc(N2CCCCC2)c2nc(N(CCO)CCO)nc(N3CCCCC3)c2n1` [dipyridamole], in the data set with SARS-CoV-2 [3], the EC50 is roughly 0.1 µM.

As for `COc1cc2ncnc(Nc3ccc(F)c(Cl)c3)c2cc1NC(=O)/C=C/CN1CCCCC1` [dacomitinib], the concentration for half-maximal inhibition (IC50) is 0.04 µM in the data set on SARS-CoV-2 [4] (read-out: IC50 against SARS-CoV-2 in Calu-3 cells) and 3.33 ± 0.06 µM against SARS-Cov-2 PL^pro.

As for `C[N+](C)(C)CCOP(=O)(O)OP(=O)([O-])OC[C@H]1O[C@@H](n2ccc(N)nc2=O)[C@H](O)[C@@H]1O` [citicoline], half-maximal inhibition against SARS-Cov-2 PL^pro (IC50) was put at 1.35 ± 0.27 µM.

Take `COc1ccc2nc3cc(Cl)ccc3c(Nc3cc(CN4CCCC4)c(O)c(CN4CCCC4)c3)c2n1` [pyronaridine tetraphosphate]: the IC50 in the data set with SARS-CoV-2 [5] is 0.23 µM; with PL^pro, 1.8 µM.

`CC1(C)CCC2=C(O1)c1ccccc1C(=O)C2=O` [β-lapachone]: the IC50 against SARS-Cov-2 PL^pro is 5.3 ± 0.29 µM.

Consider `O=C(c1ccc(OCCN2CCCCC2)cc1)c1c(-c2ccc(O)cc2)sc2cc(O)ccc12` [raloxifene], for which the half-inhibitory concentration (IC50) on SARS-Cov-2 M^pro is 42.8 ± 6.7 µM; with SARS-CoV-2 [4] (read-out: IC50 in Calu-3 cells), 9 µM; against SARS-Cov-2 PL^pro, 3.28 ± 0.29 µM; with SARS-CoV-2 [3] (read-out: IC50 against SARS-CoV-2 in Vero cells), 3.9 µM; in the data set with SARS-CoV-2 [3] (read-out: IC50 in Vero, Vero cells), 5.9 µM. Also, in the data set with SARS-CoV-2 [4], the “SI in Calu-3 cells” value is recorded as 2.7.
